Results: US10420758B2, “Indolinyl-sulfonamide inhibitors of tankyrase and methods of use thereof” (The Board of Regents of the University of Texas System, priority 2015, dated 2019)

How the values were obtained:
Assay type in all cases: biochemical
[1] = tested on: panel of recombinant PARP proteins; assay: Overall specificity in panel of recombinant PARP proteins; details: 10 μM, panel covers 70% of the protein family
Method: (§1) Performed by BPS Bioscience Inc., San Diego by following the BPS PARP or TNKS assay kit protocols. The enzymatic reactions were conducted in duplicate at room temperature for 1 hr in a 96 well plate coated with histone substrate. […] of reaction buffer (Tris.HCl, pH 8.0) contains NAD^+, biotinylated NAD^+, activated DNA, recombinant PARP enzyme and 10 μM of the test compound. […] After enzymatic reactions, 50 μL of Streptavidin-horseradish peroxidase was added to each well and the plate was incubated at room temperature for an additional 30 min. 100 μL of developer reagents were added to wells and luminescence was measured using a BioTek Synergy™ 2 microplate reader.
The higher level of conservation between the NI-binding pocket in PARPs as compared to the AD-binding pocket likely imposes greater challenges to achieving specificity with NI-binding pocket inhibitors (Wahlberg, et al., 2012). […] At the same time, the discovery of structurally distinct chemicals both capable of binding the AD-binding pocket in a similar fashion (IWR-1 and IWR-8) afforded an opportunity to evaluate the strength of this hypothesis.

[2] = molecular target: PARP11 (Homo sapiens, UniProt Q9NR21); assay: PARP profiling, parsylation of immobilized histone; details: IWR compounds 10 μM
Chain of PARP11 (Q9NR21 whole entry): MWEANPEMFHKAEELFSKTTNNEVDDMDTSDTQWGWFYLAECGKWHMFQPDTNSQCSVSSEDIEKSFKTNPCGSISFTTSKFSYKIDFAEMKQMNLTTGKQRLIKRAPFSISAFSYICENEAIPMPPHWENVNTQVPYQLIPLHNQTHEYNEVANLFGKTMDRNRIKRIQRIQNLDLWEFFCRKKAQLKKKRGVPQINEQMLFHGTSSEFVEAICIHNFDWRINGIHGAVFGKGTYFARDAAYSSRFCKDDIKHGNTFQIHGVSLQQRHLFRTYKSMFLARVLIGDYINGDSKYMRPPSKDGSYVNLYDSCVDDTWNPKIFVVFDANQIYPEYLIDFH
Method: as §1

[3] = molecular target: PARP1 (Homo sapiens, UniProt P09874); assay: PARP profiling, parsylation of immobilized histone; details: IWR compounds 10 μM
Chain of PARP1 (P09874 whole entry): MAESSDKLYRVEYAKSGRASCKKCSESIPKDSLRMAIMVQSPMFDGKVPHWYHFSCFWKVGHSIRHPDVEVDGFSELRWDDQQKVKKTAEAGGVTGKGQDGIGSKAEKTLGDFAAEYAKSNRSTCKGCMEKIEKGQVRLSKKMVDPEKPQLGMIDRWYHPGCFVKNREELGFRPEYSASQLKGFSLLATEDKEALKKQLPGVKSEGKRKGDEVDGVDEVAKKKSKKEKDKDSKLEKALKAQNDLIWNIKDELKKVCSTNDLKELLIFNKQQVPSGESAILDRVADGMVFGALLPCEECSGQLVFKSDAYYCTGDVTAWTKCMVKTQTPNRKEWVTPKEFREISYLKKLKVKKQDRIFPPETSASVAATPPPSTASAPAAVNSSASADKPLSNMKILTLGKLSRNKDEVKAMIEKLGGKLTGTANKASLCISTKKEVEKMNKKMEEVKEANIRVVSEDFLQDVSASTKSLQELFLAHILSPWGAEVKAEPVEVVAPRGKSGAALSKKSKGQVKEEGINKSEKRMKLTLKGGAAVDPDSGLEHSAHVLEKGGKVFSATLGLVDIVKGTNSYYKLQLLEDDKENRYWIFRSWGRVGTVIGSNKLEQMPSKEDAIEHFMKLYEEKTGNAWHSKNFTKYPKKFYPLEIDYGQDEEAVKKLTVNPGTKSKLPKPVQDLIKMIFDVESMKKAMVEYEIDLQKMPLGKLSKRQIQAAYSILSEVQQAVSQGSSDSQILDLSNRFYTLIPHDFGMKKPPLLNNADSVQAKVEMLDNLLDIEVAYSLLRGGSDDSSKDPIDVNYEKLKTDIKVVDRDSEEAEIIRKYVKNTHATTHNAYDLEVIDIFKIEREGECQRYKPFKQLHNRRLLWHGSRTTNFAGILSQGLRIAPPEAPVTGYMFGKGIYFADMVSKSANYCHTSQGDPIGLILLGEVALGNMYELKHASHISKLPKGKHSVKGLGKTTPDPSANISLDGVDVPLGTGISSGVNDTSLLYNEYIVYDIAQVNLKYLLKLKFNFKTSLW
Method: as §1

[4] = molecular target: PARP6 (Homo sapiens, UniProt Q2NL67); assay: PARP profiling, parsylation of immobilized histone; details: IWR compounds 10 μM
Chain of PARP6 (Q2NL67 whole entry): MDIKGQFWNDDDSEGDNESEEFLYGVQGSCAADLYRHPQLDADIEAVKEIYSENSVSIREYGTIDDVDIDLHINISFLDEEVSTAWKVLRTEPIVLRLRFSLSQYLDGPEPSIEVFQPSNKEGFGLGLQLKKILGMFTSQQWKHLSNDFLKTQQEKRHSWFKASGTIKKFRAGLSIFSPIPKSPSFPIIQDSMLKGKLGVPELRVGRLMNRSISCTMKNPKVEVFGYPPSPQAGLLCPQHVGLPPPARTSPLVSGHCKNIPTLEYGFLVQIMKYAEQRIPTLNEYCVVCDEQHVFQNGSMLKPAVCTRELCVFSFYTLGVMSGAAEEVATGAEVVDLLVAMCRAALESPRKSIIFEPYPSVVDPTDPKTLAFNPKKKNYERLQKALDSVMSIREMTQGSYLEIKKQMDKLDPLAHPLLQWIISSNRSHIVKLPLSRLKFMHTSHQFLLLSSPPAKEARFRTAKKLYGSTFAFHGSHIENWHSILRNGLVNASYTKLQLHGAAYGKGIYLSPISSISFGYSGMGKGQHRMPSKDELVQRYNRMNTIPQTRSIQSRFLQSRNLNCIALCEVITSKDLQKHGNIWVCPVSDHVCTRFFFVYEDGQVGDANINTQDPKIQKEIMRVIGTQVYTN
Method: as §1

[5] = molecular target: T1, PARP3 (Homo sapiens, UniProt Q9Y6F1); assay: PARP profiling, parsylation of immobilized histone
T1 sequence (Q9Y6F1 1-533): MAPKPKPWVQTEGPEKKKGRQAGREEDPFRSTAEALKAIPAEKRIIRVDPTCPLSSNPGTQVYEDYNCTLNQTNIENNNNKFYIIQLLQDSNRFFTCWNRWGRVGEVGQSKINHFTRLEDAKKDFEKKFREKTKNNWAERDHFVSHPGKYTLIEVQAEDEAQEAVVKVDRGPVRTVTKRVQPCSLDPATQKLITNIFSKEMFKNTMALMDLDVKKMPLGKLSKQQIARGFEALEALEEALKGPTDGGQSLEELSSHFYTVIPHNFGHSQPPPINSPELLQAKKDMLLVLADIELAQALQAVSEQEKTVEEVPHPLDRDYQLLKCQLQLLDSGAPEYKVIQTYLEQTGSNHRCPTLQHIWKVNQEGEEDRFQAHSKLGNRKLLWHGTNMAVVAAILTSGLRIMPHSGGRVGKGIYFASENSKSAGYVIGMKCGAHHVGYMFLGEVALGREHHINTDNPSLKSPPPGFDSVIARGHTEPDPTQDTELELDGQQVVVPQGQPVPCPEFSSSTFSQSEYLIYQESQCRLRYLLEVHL
Method: as §1

[6] = molecular target: PARP7 (Homo sapiens, UniProt Q7Z3E1); assay: PARP profiling, parsylation of immobilized histone; details: IWR compounds 10 μM
Chain of PARP7 (Q7Z3E1 whole entry): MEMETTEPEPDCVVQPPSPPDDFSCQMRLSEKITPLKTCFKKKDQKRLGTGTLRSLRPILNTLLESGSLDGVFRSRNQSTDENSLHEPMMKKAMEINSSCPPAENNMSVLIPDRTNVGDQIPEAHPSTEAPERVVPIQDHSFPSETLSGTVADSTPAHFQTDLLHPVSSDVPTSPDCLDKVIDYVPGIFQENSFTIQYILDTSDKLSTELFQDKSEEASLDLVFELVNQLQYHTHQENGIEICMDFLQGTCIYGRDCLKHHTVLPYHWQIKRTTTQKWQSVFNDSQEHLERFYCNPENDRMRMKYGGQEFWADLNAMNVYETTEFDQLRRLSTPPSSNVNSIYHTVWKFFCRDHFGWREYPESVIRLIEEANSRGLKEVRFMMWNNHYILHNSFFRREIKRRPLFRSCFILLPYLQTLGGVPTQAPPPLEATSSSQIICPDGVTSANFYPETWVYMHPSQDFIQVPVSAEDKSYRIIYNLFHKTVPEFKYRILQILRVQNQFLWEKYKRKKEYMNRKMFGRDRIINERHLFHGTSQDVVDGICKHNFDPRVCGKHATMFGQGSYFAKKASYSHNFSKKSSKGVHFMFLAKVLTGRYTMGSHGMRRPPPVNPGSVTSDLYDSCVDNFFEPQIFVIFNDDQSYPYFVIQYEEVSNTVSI
Method: as §1

[7] = molecular target: PARP2 (Homo sapiens, UniProt Q9UGN5); assay: PARP profiling, parsylation of immobilized histone
Chain of PARP2 (Q9UGN5 whole entry): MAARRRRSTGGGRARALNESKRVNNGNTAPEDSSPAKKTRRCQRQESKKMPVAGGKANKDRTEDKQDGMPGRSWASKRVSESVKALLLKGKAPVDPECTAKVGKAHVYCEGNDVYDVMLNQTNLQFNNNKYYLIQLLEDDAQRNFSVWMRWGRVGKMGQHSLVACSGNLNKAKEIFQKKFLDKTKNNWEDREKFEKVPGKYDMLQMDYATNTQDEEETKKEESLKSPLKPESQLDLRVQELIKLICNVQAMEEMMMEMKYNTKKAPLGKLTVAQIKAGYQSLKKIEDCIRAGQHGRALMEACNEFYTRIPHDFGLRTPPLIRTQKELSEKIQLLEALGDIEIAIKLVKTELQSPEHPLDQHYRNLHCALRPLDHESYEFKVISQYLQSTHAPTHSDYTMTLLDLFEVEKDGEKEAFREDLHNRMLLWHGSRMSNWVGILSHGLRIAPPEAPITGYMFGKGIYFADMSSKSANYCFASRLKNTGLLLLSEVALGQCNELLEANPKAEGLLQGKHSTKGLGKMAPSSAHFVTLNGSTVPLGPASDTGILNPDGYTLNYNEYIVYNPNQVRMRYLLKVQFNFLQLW
Method: as §1

[8] = molecular target: T2, PARP15 (Homo sapiens, UniProt Q460N3); assay: PARP profiling, parsylation of immobilized histone
T2 sequence (Q460N3 1-678): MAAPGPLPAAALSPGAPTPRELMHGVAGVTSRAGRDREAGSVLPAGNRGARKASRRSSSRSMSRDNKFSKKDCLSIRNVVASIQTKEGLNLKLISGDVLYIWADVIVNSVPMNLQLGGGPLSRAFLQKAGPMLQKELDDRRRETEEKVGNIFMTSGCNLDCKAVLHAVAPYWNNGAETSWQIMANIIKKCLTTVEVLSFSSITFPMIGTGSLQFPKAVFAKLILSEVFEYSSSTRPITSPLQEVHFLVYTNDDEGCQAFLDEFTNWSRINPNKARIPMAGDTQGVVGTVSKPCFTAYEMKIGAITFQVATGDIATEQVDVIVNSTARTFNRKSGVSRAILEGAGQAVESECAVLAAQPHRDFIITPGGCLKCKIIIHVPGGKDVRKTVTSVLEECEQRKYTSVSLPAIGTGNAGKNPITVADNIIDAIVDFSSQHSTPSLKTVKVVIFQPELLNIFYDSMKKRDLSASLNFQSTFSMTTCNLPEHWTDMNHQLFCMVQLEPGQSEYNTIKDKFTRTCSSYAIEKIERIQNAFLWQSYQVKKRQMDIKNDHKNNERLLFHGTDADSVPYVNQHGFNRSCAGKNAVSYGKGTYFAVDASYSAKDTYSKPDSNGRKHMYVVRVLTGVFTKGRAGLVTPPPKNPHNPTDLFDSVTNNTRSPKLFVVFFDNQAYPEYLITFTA
Method: as §1

Row | Structure (SMILES) | specificity/selectivity across PARP panel [1] | % inhibition [2] [%] | % inhibition [3] [%] | % inhibition [4] [%] | % inhibition ([5]; IWR compounds 10 μM) [%] | % inhibition [6] [%] | % inhibition ([7]; IWR compounds 10 μM) [%] | % inhibition ([8]; IWR compounds 10 μM) [%] | inhibition at 10 µM [2] [%] | inhibition at 10 µM [3] [%] | inhibition at 10 µM [4] [%] | inhibition at 10 µM [5] [%] | inhibition at 10 µM [6] [%] | inhibition at 10 µM ([7]; IWR compounds 10 μM) [%] | inhibition at 10 µM ([8]; IWR compounds 10 μM) [%] | inhibition at 0.02 µM [5] [%] | inhibition at 0.02 µM [7] [%] | inhibition at 0.02 µM [8] [%]
1 | O=C(Nc1cccc2cccnc12)c1ccc(N2C(=O)[C@@H]3[C@H](C2=O)[C@@H]2C=C[C@H]3C2)cc1 [IWR-1] | highly specific | 2 | 0 | 0 | 6 | 7 | 5 | 0 | – | – | – | – | – | – | – | – | – | –
2 | CCN(C(=O)C1CCN(S(=O)(=O)c2cc3c(cc2Br)CCN3C(C)=O)CC1)c1cccc(C)c1 [IWR-8] | highly specific | – | – | – | – | – | – | – | 12 | 0 | 0 | 11 | 8 | 3 | 0 | – | – | –
3 | O=C(c1cc(Cc2n[nH]c(=O)c3ccccc23)ccc1F)N1CCN(C(=O)C2CC2)CC1 [Olaparib] | – | – | – | – | – | – | – | – | – | – | – | – | – | – | – | 100 | 100 | 82
